# From patent US10597388B2, “Pyridazinone herbicides” (FMC CORPORATION, priority 2014, dated 2020)
# Read-outs that look alike come from different tables or passages of the source.
# How the values were obtained:
# Type in all cases: in vivo
# [1] = tested on: crabgrass, large (large crabgrass, Digitaria sanguinalis); assay: Test A greenhouse herbicide test, pre- and postemergence; details: 240 h; for pest or weed control at 1000 g/ha: 1000 g ai/ha; for pest or weed control at 1000 g/ha / pest or weed control at 500 g/ha: 0 to 100 scale; for pest or weed control at 125 g/ha: 125 g ai/ha; for pest or weed control at 500 g/ha: 500 g ai/ha
# In short: (§1)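 Seeds in loam–sand blend received a preemergence directed soil spray; plants at 2–10 cm, one- to two-leaf stage, received postemergence sprays. Compounds in a non-phytotoxic solvent with surfactant. After about 10 d in a greenhouse, injury rated visually versus untreated controls on a 0–100 scale (100 = complete control).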
# [2] = tested on: momingglory (Ipomoea spp.); assay: as above; details: 240 h; for pest or weed control at 1000 g/ha: 1000 g ai/ha; for pest or weed control at 1000 g/ha / pest or weed control at 500 g/ha: 0 to 100 scale; for pest or weed control at 125 g/ha: 125 g ai/ha; for pest or weed control at 500 g/ha: 500 g ai/ha
# In short: as §1
# [3] = tested on: ALOMY, blackgrass (Alopecurus myosuroides); assay: Test F mixtures with commercial herbicides, Post- or Pre-emergence; details: Post-emergence, scale 0-100
# In short: (§2)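 Sandy Loam, seeded; pre-/post-emerg. spray, non-phytotoxic solvent, g a.i./ha. GH ~16 h light, day 24-30, night 19-21° C., fertilized via watering. Read: visual % control d20 vs untreated. Exp. via Colby.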
# [4] = tested on: AMARE, redroot pigweed (Amaranthus retroflexus); assay: as above
# In short: as §2
# [5] = tested on: AMBEL, common ragweed (Ambrosia elatior); assay: as above
# In short: as §2
# [6] = tested on: ECHCG, barnyardgrass (Echinochloa crus-galli); assay: as above
# In short: as §2
# [7] = tested on: GALAP, galium (Galium aparine); assay: as above; details: Post-emergence, scale 0-100
# In short: as §2
# [8] = tested on: KCHSC, kochia (Kochia scoparia); assay: as above
# In short: as §2
# [9] = tested on: LOLMU, Italian Ryegrass (Lolium multiflorum); assay: as above
# In short: as §2
# [10] = tested on: SETVI, giant foxtail (Setaria faberii); assay: as above
# In short: as §2
# [11] = post-emergence, Postemergence, 0 is no effect, 100 is complete control, read-out: Crabgrass, Large plant response rating
# [12] = pre-emergence, Preemergence, 0 no effect, 100 complete control, read-out: Plant response rating, Crabgrass, Large
# [13] = post-emergence, Postemergence, 0 is no effect, 100 is complete control, read-out: Morningglory plant response rating
# [14] = pre-emergence, Preemergence, 0 no effect, 100 complete control, read-out: Plant response rating, Morningglory
# [15] = Post-emergence, Rate 16 g a.i./ha, scale 0-100
# [16] = Post-emergence, Rate 62 g a.i./ha, scale 0-100
# [17] = Pre-emergence, Rate 16 g a.i./ha, applied alone, 20 d, scale 0 to 100
# [18] = Pre-emergence, Rate 62 g a.i./ha, applied alone, 20 d, scale 0 to 100
structure (smiles),measurement,setting,value
"Cc1ccc2sc(C)c(-c3c(O)c(C)nn(C)c3=O)c2c1 [Compound 1, 4-(2,5-dimethylbenzo[b]thien-3-yl)-5-hydroxy-2,6-dimethyl-3(2H)-pyridazinone]",pest or weed control at 1000 g/ha,[1]; [11],90%
same,pest or weed control at 1000 g/ha,[1]; [12],90%
same,pest or weed control at 1000 g/ha,[2]; [13],100%
same,pest or weed control at 1000 g/ha,[2]; [14],90%
same,ALOMY Obsd.,[3]; Rate 16 g a.i./ha,0.0
same,ALOMY Obsd.,[3]; Rate 62 g a.i./ha,35.0
same,AMARE Obsd.,[4]; [15],30.0
same,AMARE Obsd.,[4]; [16],100.0
same,AMARE Obsd.,[4]; [17],20
same,AMARE Obsd.,[4]; [18],90
same,AMBEL Obsd.,[5]; [15],95.0
same,AMBEL Obsd.,[5]; [16],100.0
same,AMBEL Obsd.,[5]; [17],65
same,AMBEL Obsd.,[5]; [18],90
same,ECHCG Obsd.,[6]; [15],0.0
same,ECHCG Obsd.,[6]; [16],0.0
same,ECHCG Obsd.,[6]; [17],0
same,ECHCG Obsd.,[6]; [18],20
same,GALAP Obsd.,[7]; Rate 16 g a.i./ha,65.0
same,GALAP Obsd.,[7]; Rate 62 g a.i./ha,100.0
same,KCHSC Obsd.,[8]; [15],60.0
same,KCHSC Obsd.,[8]; [16],100.0
same,KCHSC Obsd.,[8]; [17],0
same,KCHSC Obsd.,[8]; [18],25
same,LOLMU Obsd.,[9]; [15],65.0
same,LOLMU Obsd.,[9]; [16],100.0
same,LOLMU Obsd.,[9]; [17],65
same,LOLMU Obsd.,[9]; [18],100
same,SETVI Obsd.,[10]; [15],0.0
same,SETVI Obsd.,[10]; [16],40.0
same,SETVI Obsd.,[10]; [17],0
same,SETVI Obsd.,[10]; [18],60
"Cc1nn(C)c(=O)c(-c2c(C)oc3c(C)cccc23)c1O [Compound 9, 4-(2,7-dimethyl-3-benzofuranyl)-5-hydroxy-2,6-dimethyl-3(2H)-pyridazinone]",pest or weed control at 125 g/ha,"[1]; post-emergence, Postemergence, visual rating after approx. 10 d, 0 to 100 scale (0 no effect, 100 complete control), read-out: Plant response rating, Crabgrass, Large",10%
same,pest or weed control at 500 g/ha,[1]; [11],50%
same,pest or weed control at 125 g/ha,"[1]; pre-emergence, Preemergence, 0 to 100 scale where 0 is no effect and 100 is complete control, read-out: Crabgrass, Large plant response rating",20%
same,pest or weed control at 500 g/ha,[1]; [12],90%
same,pest or weed control at 125 g/ha,"[2]; post-emergence, Postemergence, visual rating after approx. 10 d, 0 to 100 scale (0 no effect, 100 complete control), read-out: Plant response rating, Morningglory",40%
same,pest or weed control at 500 g/ha,[2]; [13],80%
same,pest or weed control at 125 g/ha,"[2]; pre-emergence, Preemergence, 0 to 100 scale where 0 is no effect and 100 is complete control, read-out: Morningglory plant response rating",0%
same,pest or weed control at 500 g/ha,[2]; [14],0%
